Measured values: article PMC5814047, “Peptidic inhibitors of insulin-degrading enzyme with potential for dermatological applications discovered via phage display” (PLoS ONE, 2018)
Values joined by “and” are separate entries in the source; they are usually repeats but may differ in a detail not shown here. Equal entries are not always repeated. Bridge positions count the residues as written; N and C are the ends. Peptide text beside a SMILES is read from it.

Columns and labels:
Type in all cases: cell-based
[1] = tested on: COL1A1 mRNA in primary murine skin fibroblasts; test: COL1A1 mRNA quantification by RT-PCR
Description: (§1) Insulin promotes wound healing and overall skin health by affecting a number of processes, including cell proliferation, cell migration, and the production and secretion of ECM components, particularly type I collagen. We therefore assessed the ability of P12-3A to influence these processes in cultured skin fibroblasts and keratinocytes. To that end, primary mouse skin fibroblasts were grown for 4 d in multiple concentrations of insulin in the presence or absence of P12-3A, and insulin concentration over time was monitored by ELISA. […] Finally, the effects of P12-3A on collagen production in were assessed at both the transcriptional and the posttranslational level in confluent monolayers of fibroblasts. After 4 d of treatment with P12-3A (100 μM), mRNA levels for the major form of collagen, alpha-1 type I collagen (COL1A1), were quantified by RT-PCR and found to be increased to ~2.6 times the levels of untreated cells (Fig 4C). To assess overall levels of collagen production and secretion, we quantified levels of hydroxyproline, a modified amino acid present almost exclusively in collagen proteins. […] Western blotting also confirmed that mature, cell-associated collagen levels were increased in the presence of P12-3A (Fig 4E).
(§2) Fig 4 Effects of P12-3A on cultured skin cells. A, Insulin concentrations as a function of time in logarithmically growing primary murine skin fibroblasts in the absence or presence of P12-3A (100 μM). […] Data are mean ± SEM of 4 independent replications. *P<0.05, **P<0.01. B, Proliferation of cells in the absence or presence of P12-3A (100 μM). Data are mean ± SEM of 6 independent replications. […] C,D,E, P12-3A (100 μM) potentiates insulin-induced collagen production in skin fibroblasts. Collagen production was assessed by COL1A1 mRNA levels (C), levels of hydroxyproline secreted into the medium (D), and cell-associated mature alpha-1 type I collagen levels detected by Western blotting (E). Data are mean ± SD of 4 independent replications. *P<0.05, **P<0.01. […] Migration of HaCaT cells 48 h after induction of a scratch wound in the presence of the indicated quantities of insulin and/or P12-3A (100 μM). Data are mean ± SEM of 6 independent replications. *P<0.05, **P<0.01.
RNA was extracted from freshly lysed cells, reverse transcribed and amplified using the Ambion® Fast SYBR® Green Cells-to-CT™ Kit according to manufacturer’s recommendations (Thermo Fisher Scientific, Waltham, MA, USA). The quantitative real-time PCR reaction was conducted using a 7500 real-time PCR system and analyzed using System SDS software v2.0.5 (Applied Biosystems). Murine COL1A1 mRNA was detected using the following primers (forward: 5’-[…] and reverse: 5’ […]). Fold change differences between samples were determined using the comparative Ct (ΔΔCt) method, normalized to internal standards detected with the SYBR® Green Cells-to-CT™ Control Kit according to manufacturer’s recommendations (Thermo Fisher Scientific, Waltham, MA, USA) calculated by 2^-ΔΔCt.

cultured skin cells = test: Toxicity in cell culture experiments
Text: Although a variety of potent and selective IDE inhibitors have been developed, current inhibitors are difficult to synthesize, expensive to generate and/or contain chemical moieties or constituents with established or undetermined potential for toxicity. Due to these and other considerations, existing IDE inhibitors are poorly suited for topical applications. To overcome these limitations, in the present study we aimed to develop peptidic inhibitors of IDE suitable for use in wound healing or cosmetic applications. […] To that end, we used phage display technology to select for a range of peptides that bind to IDE with strong affinity, which were then screened for resistance to degradation by IDE.

HaCaT cells = test: In vitro scratch wound migration assay; conditions: for migration of keratinocytes, single replicates (average of two observers) / migration of keratinocytes, Mean: 48 hr after scratching; for migration of keratinocytes, Mean: N 6
Description: as §1, §2
Cell migration in HaCaT cells after induction of scratch wounds was quantified essentially as described. Briefly, HaCaT cells maintained in optimized DMEM (AddexBio Technologies, San Diego, CA, USA) supplemented with 10% FBS, penicillin and streptomycin, were grown to confluency in 24-well tissue culture plates, and scratch wounds were induced with a 200-μL pipette tip. After growth for 48 h in the absence or presence of insulin (10 nM or 100 nM) and/or P12-3A (100 μM), cell migration distance was quantified by two independent, blinded observers using a Nikon TMS inverted light microscope (Nikon Corp., Melville, NY, USA) fitted with a ruler reticle.

[2] = tested on: primary murine skin fibroblasts; test: Insulin degradation in primary murine skin fibroblasts (ELISA of conditioned medium); conditions: for Percent insulin remaining, Mean / Percent insulin remaining: P12-3A 100 uM, 100nM insulin added; for Percent insulin remaining, Mean: N 4; for Percent insulin remaining: conditioned medium, individual replicates
Description: as §1, §2
IDE activity was quantified by monitoring the degradation of Mca-[…](Dnp) (FRET1, 5 μM), fluoresceinated and biotinylated amyloid ß-protein (FAßB; 500 nM) or recombinant human insulin (50 nM) in PBS supplemented with 0.05% BSA. FRET1 degradation was measured by changes in fluorescence (λex = 340 nm, λem = 420 nm); FAßB degradation was monitored by fluorescence polarization (λex = 488 nm, λem = 525 nm), as described; and insulin degradation was quantified by ELISA. In vitro activity assays incorporated recombinant human IDE (1 nM) purified from bacteria. For quantitation of insulin degradation in primary murine skin fibroblasts, cells (1 x 10^5/well) were plated in 96-well plates and maintained in DMEM supplemented with 10% fetal bovine serum (FBS), 2mM glutamine, penicillin and streptomycin. After addition of insulin (10 nM or 100 nM), samples of conditioned medium were removed daily and quickly frozen, then insulin levels were quantified in parallel by ELISA according to manufacturer’s recommendations (Crystal Chem, Downers Grove, IL, USA). Assessment of the activity of P12-3A against a variety of matrix-metalloproteases was conducted using the Matrix Metalloproteinase (MMP) Inhibitor Profiling Kit, Fluorometric RED (Enzo Life Sciences, Inc., Farmingdale, NY, USA) according to manufacturer’s recommendations using the broad-spectrum MMP inhibitor, NNGH, as a positive control.

[3] = P12-3A 100 uM, individual replicates

## CC(C)C[C@H](NC(=O)[C@H](CO)NC(=O)[C@@H](N)CCC(N)=O)C(=O)N1CCC[C@H]1C(=O)N[C@@H](Cc1c[nH]c2ccccc12)C(=O)N[C@H]1CSSC[C@@H](C(=O)N[C@H](C(=O)N[C@H](C(N)=O)[C@@H](C)O)C(C)C)NC(=O)[C@H](Cc2c[nH]cn2)NC(=O)[C@@H]2CCCN2C(=O)[C@H](Cc2ccc(O)cc2)NC1=O [P12-3A] (H-QSLPWCYPHCVT-NH2; disulfide 6-10 (inferred))
[1]; 100 μM P12-3A, 4 d, confluent monolayers
  COL1A1 mRNA levels: ~ 2.6 times the levels of untreated cells
[1]; P12-3A 100 uM, N 4
  2^(-DCt), COL1A1 mRNA, Mean: 0.490
  DCt (COL1A1 mRNA vs internal standard ß-actin), Mean: 1.082
[1]; [3]
  2^(-DCt), COL1A1 mRNA: 0.454 and 0.570 and 0.306 and 0.629
  DCt (COL1A1 mRNA vs internal standard ß-actin): 1.14 and 0.81 and 1.71 and 0.67
[1]; P12-3A 100 uM, normalized to control mean (1.000), N 4
  COL1A1 mRNA, normalized, Mean: 2.644
[1]; P12-3A 100 uM, normalized to control mean (1.000), individual replicates
  COL1A1 mRNA, normalized: 2.451 and 3.081 and 1.651 and 3.395
[1]; P12-3A 100 uM, raw Ct, N 4
  Ct, COL1A1 mRNA, Mean: 21.783
[1]; P12-3A 100 uM, raw Ct, individual replicates
  Ct, COL1A1 mRNA: 22.07 and 21.23 and 21.93 and 21.9
Cultured skin cells
  toxicity in cell culture experiments: no evidence of toxicity
HaCaT cells; 10 nM ins
  migration of keratinocytes, single replicates (average of two observers): 10.5 mm and 10.6 mm and 10.1 mm and 8.4 mm and 4.9 mm and 12.6 mm
  migration of keratinocytes, Mean: 9.5 mm
HaCaT cells; 100 nM ins
  migration of keratinocytes, single replicates (average of two observers): 10.1 mm and 11.5 mm and 16.4 mm and 11.4 mm and 14.4 mm and 18.1 mm
  migration of keratinocytes, Mean: 13.6 mm
HaCaT cells; 100 μM P12-3A, different concentrations of insulin, 48 h
  migration of keratinocytes: statistically significant increases
HaCaT cells; no ins
  migration of keratinocytes, single replicates (average of two observers): 5.0 mm and 5.9 mm and 3.4 mm and 8.3 mm and 3.2 mm and 4.0 mm
  migration of keratinocytes, Mean: 4.9 mm
[2]; 100 μM P12-3A, 10 nM insulin, up to day 4, logarithmically growing cells
  insulin levels over time in cells: remain constant
[2]; t 0 d
  Percent insulin remaining, Mean: 100.0%
  Percent insulin remaining: 85.1403% and 114.724% and 102.178% and 97.9576%
[2]; t 1 d
  Percent insulin remaining, Mean: 102.0%
  Percent insulin remaining: 95.514% and 88.3018% and 126.115% and 98.0694%
[2]; t 2 d
  Percent insulin remaining, Mean: 97.0%
  Percent insulin remaining: 100.082% and 83.3067% and 102.861% and 101.75%
[2]; t 3 d
  Percent insulin remaining, Mean: 91.0%
  Percent insulin remaining: 84.576% and 69.9969% and 96.4916% and 112.935%
[2]; t 4 d
  Percent insulin remaining, Mean: 96.0%
  Percent insulin remaining: 100.148% and 97.4317% and 103.413% and 83.0078%
